Measurements from ChEMBL document CHEMBL1201862, “PubChem BioAssay data set” (2004).
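How tested: cells in 96-well plates exposed to compound for 48 hours at five concentrations. GI50 is the concentration that inhibits growth by half.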 Activity calls are given as the source filed them. Cut-off read from the data, not from the text of the source: active = GI50 up to about 1.1 µM and inactive = higher.

Legend:
Test in all cases: DTP human tumour cell line panel, 48 h
HT-29 = system: HT-29
SF-295 = system: SF-295
PC-3 = system: PC-3
BT-549 = system: BT-549
UACC-257 = system: UACC-257
Malme-3M = system: Malme-3M
NCI-H23 = system: NCI-H23
MDA-MB-435 = system: MDA-MB-435
ACHN = system: ACHN
HCT-15 = system: HCT-15
SF-539 = system: SF-539
UO-31 = system: UO-31
A498 = system: A498
SR = system: SR
COLO 205 = system: COLO 205
K562 = system: K562
U-251 = system: U-251
OVCAR-8 = system: OVCAR-8
SW-620 = system: SW-620
HOP-92 = system: HOP-92
LOX IMVI = system: LOX IMVI
SK-OV-3 = system: SK-OV-3
MOLT-4 = system: MOLT-4
HCT-116 = system: HCT-116
RPMI-8226 = system: RPMI-8226
SN12C = system: SN12C
Hs-578T = system: Hs-578T
MDA-N = system: MDA-N
UACC-62 = system: UACC-62
NCI-H522 = system: NCI-H522
A549 = system: A549
M14 = system: M14
NCI/ADR-RES = system: NCI/ADR-RES
OVCAR-5 = system: OVCAR-5
SNB-75 = system: SNB-75
SNB-19 = system: SNB-19
CCRF-CEM = system: CCRF-CEM
CAKI-1 = system: CAKI-1
TK-10 = system: TK-10
HOP-62 = system: HOP-62
T47D = system: T47D
786-0 = system: 786-0
HL-60 = system: HL-60
SK-MEL-2 = system: SK-MEL-2
KM12 = system: KM12
SF-268 = system: SF-268
IGROV-1 = system: IGROV-1
MCF7 = system: MCF7
OVCAR-3 = system: OVCAR-3
SK-MEL-28 = system: SK-MEL-28
SK-MEL-5 = system: SK-MEL-5
EKVX = system: EKVX
RXF 393 = system: RXF 393
MDA-MB-231 = system: MDA-MB-231
NCI-H460 = system: NCI-H460
DU-145 = system: DU-145
HCC 2998 = system: HCC 2998
OVCAR-4 = system: OVCAR-4
NCI-H226 = system: NCI-H226

CCN(CC)CCCNc1nnc(C)c2[nH]c3ccccc3c12
GI50 (HT-29): 6.49 µM (inactive)
GI50 (SF-295): 20.8 µM (inactive)
GI50 (PC-3): 12.1 µM (inactive)
GI50 (BT-549): 21.6 µM (inactive)
GI50 (UACC-257): 15.1 µM (inactive)
GI50 (Malme-3M): 15.1 µM (inactive)
GI50 (NCI-H23): 15.5 µM (inactive)
GI50 (MDA-MB-435): 11.6 µM (inactive)
GI50 (ACHN): 18 µM (inactive)
GI50 (HCT-15): > 100 µM
GI50 (SF-539): 2.28 µM (inactive)
GI50 (UO-31): 37.2 µM (inactive)
GI50 (A498): 17.2 µM (inactive)
GI50 (SR): 7.13 µM (inactive)
GI50 (COLO 205): 2.7 µM (inactive)
GI50 (K562): 10.1 µM (inactive)
GI50 (U-251): 13.4 µM (inactive)
GI50 (OVCAR-8): 7.93 µM (inactive)
GI50 (SW-620): 9.2 µM (inactive)
GI50 (HOP-92): 6.9 µM (inactive)
GI50 (LOX IMVI): 7.46 µM (inactive)
GI50 (SK-OV-3): 11 µM (inactive)
GI50 (MOLT-4): 4.1 µM (inactive)
GI50 (HCT-116): 5.36 µM (inactive)
GI50 (RPMI-8226): 23.5 µM (inactive)
GI50 (SN12C): 12.7 µM (inactive)
GI50 (Hs-578T): 15.4 µM (inactive)
GI50 (MDA-N): 13.7 µM (inactive)
GI50 (UACC-62): 13.7 µM (inactive)
GI50 (NCI-H522): 5.7 µM (inactive)
GI50 (A549): 17.8 µM (inactive)
GI50 (M14): 16 µM (inactive)
GI50 (NCI/ADR-RES): > 100 µM (inactive)
GI50 (OVCAR-5): 19.6 µM (inactive)
GI50 (SNB-75): 18.3 µM (inactive)
GI50 (SNB-19): 19.3 µM (inactive)
GI50 (CCRF-CEM): 4.42 µM (inactive)
GI50 (CAKI-1): > 100 µM (inactive)
GI50 (TK-10): 20.2 µM (inactive)
GI50 (HOP-62): 7.31 µM (inactive)
GI50 (T47D): 12.7 µM (inactive)
GI50 (786-0): 18.2 µM (inactive)
GI50 (HL-60): 3.28 µM (inactive)
GI50 (SK-MEL-2): 15.2 µM (inactive)
GI50 (KM12): 11.4 µM (inactive)
GI50 (SF-268): 8.73 µM (inactive)
GI50 (IGROV-1): 12.1 µM (inactive)
GI50 (MCF7): 3.61 µM (inactive)
GI50 (OVCAR-3): 11.7 µM (inactive)
GI50 (SK-MEL-28): 18.7 µM (inactive)
GI50 (SK-MEL-5): 14.6 µM (inactive)
GI50 (EKVX): 18.7 µM (inactive)
GI50 (RXF 393): 17.7 µM (inactive)
GI50 (MDA-MB-231): 11.4 µM (inactive)
GI50 (NCI-H460): 8.13 µM (inactive)
GI50 (DU-145): 18.9 µM (inactive)
GI50 (HCC 2998): 9.95 µM (inactive)

C=C1CC(C)(COc2cc(=O)oc3ccccc23)OC1=O (stereo not given)
GI50 (HT-29): 3.82 µM (inactive)
GI50 (SF-295): 12.7 µM (inactive)
GI50 (PC-3): 4.11 µM (inactive)
GI50 (BT-549): 1.73 µM (inactive)
GI50 (UACC-257): 1.87 µM (inactive)
GI50 (Malme-3M): 2.04 µM (inactive)
GI50 (OVCAR-4): 3.87 µM (inactive)
GI50 (NCI-H23): 3.87 µM (inactive)
GI50 (MDA-MB-435): 5.53 µM (inactive)
GI50 (ACHN): 5.21 µM (inactive)
GI50 (HCT-15): 3.43 µM
GI50 (SF-539): 3.96 µM (inactive)
GI50 (UO-31): 12.1 µM (inactive)
GI50 (A498): 2.91 µM (inactive)
GI50 (SR): 2.88 µM (inactive)
GI50 (COLO 205): 2.03 µM (inactive)
GI50 (K562): 2 µM (inactive)
GI50 (U-251): 14.3 µM (inactive)
GI50 (OVCAR-8): 5.21 µM (inactive)
GI50 (SW-620): 2.57 µM (inactive)
GI50 (HOP-92): 1.2 µM (inactive)
GI50 (LOX IMVI): 2.56 µM (inactive)
GI50 (SK-OV-3): 10.6 µM (inactive)
GI50 (MOLT-4): 1.94 µM (inactive)
GI50 (HCT-116): 2.71 µM (inactive)
GI50 (RPMI-8226): 0.637 µM (active)
GI50 (SN12C): 8.3 µM (inactive)
GI50 (Hs-578T): 7.74 µM (inactive)
GI50 (MDA-N): 4.13 µM (inactive)
GI50 (UACC-62): 2.48 µM (inactive)
GI50 (NCI-H522): 1.8 µM (inactive)
GI50 (A549): 14 µM (inactive)
GI50 (M14): 1.42 µM (inactive)
GI50 (NCI/ADR-RES): 3.35 µM (inactive)
GI50 (OVCAR-5): 7.78 µM (inactive)
GI50 (SNB-75): 8.07 µM (inactive)
GI50 (SNB-19): 15.8 µM (inactive)
GI50 (CCRF-CEM): 1.86 µM (inactive)
GI50 (CAKI-1): 2.22 µM (inactive)
GI50 (TK-10): 1.77 µM (inactive)
GI50 (HOP-62): 20.2 µM (inactive)
GI50 (T47D): 2.48 µM (inactive)
GI50 (786-0): 2.84 µM (inactive)
GI50 (HL-60): 1.17 µM (inactive)
GI50 (SK-MEL-2): 2.51 µM (inactive)
GI50 (KM12): 8.02 µM (inactive)
GI50 (SF-268): 14.9 µM (inactive)
GI50 (IGROV-1): 3.03 µM (inactive)
GI50 (MCF7): 1.74 µM (inactive)
GI50 (OVCAR-3): 3.96 µM (inactive)
GI50 (SK-MEL-28): 3.05 µM (inactive)
GI50 (SK-MEL-5): 5.33 µM (inactive)
GI50 (EKVX): 12.3 µM (inactive)
GI50 (MDA-MB-231): 7.38 µM (inactive)
GI50 (NCI-H460): 11.1 µM (inactive)
GI50 (DU-145): 6.97 µM (inactive)
GI50 (HCC 2998): 25.2 µM (inactive)
GI50 (NCI-H226): 10.3 µM (inactive)
